In patent publication US20240261243A1, “NITRIC OXIDE DONORS, COMPOSITIONS, AND METHODS OF USE” (priority 2020, published 2024):
Marks after values point to notes of the source that are not given here.

Key:
[1] = NO storage and release measurement (chemiluminescence nitric oxide analyzer); assay type: physicochemical
Description: N-diazeniumdiolates NO scaffolds are pH-triggered NO-release donors. Reacting with proton in the physiological condition (e.g., 37° C., pH 7.4), 1 mole of N-diazeniumdiolate regenerates 1 mole of the parent secondary amine compounds and two moles of NO radicals. The real-time detection of NO was performed by using a chemiluminescence-based nitric oxide analyzer (NOA). The total NO storage and dissociation kinetics of water-soluble NO Donors were measured in physiological condition (pH 7.40, 37° C.). The resulting NO-release parameters (e.g., total NO storage, half-life of NO release, maximum flux, and conversion efficiency) were evaluated for suitability as a pharmaceutical product.
Transfer the solution into the high-pressure vessel and purge the headspace with nitrogen. Mix the solution and set nitric oxide pressure to 25 bar (temp 20° C.). Allow the reaction to run for minimum of 3 days. Stop the reaction by venting the NO. Precipitate the reaction product in acetone (10:1 acetone:reaction mixture). Filter the precipitate and vacuum dry.
We sought to determine whether an NO donor and gallium nitrate have antimicrobial synergy against a lab strain of P. aeruginosa (PAK). The Checkerboard assay (described herein) was used with a hepta-substituted cyclodextrin-based NO donor (hereinafter referred to as BIOC76) having approximately ˜4.7 μmol NO/mg dry powder.

P. aeruginosa strains = experiment: MIC/MBC of BIOC76 and gallium citrate alone against 21 strains; assay type: cell-based, Pseudomonas aeruginosa; conditions: for MBC Rep 1 / MIC Rep 1: alone
Excerpt: Determined the MIC of each test article individually against the strains being tested using the CLSI MIC/MBC method.
In this study, we established the MIC/MiBC's of BIOC76 and gallium citrate alone against each of 21 P. aeruginosa strains. […] The activity of both compounds is also strain-dependent. The results are as follows (the species for each strain is Pseudomonas aeruginosa: […]

P. aeruginosa biofilms = experiment: Biofilm eradication (MBEC) on peg lid
P. aeruginosa (PAK) [2] = experiment: Combination MIC/MBC assay, BIOC76 with fixed gallium citrate; assay type: cell-based, Pseudomonas aeruginosa
Description: Combination MIC/MBC assays are useful when you want to look at only a few concentrations of one compound (Gallium citrate) combined with many concentrations of the second compound (BIOC76).
This method also allows us to see the change in both the MIC and MBC of a drug when in combination with another drug. Checkerboard assays only allow us to see changes in the MIC's.
Test articles are added to a 96-well plate so that when a 2× bacterial culture (prepared to 10^6 CFU/ml) is added, the final concentration in all wells was 1×.
All test articles are prepared at 4×→diluted 1:1 when other TA is added (2×) and diluted 1:1 again to 1× when bacteria are added.
TA #1 (Gallium citrate) is prepared and added to entire rows of a plate at a single concentration.
TA #2 (BIOC76) in then prepared and serially diluted in TA #1, so there are 2-fold dilutions of TA #2 combined with a single concentration of TA #1.
Plates were incubated at 37° C. for 18-24 h.
The ΔMIC/IBC is used to show the change in the MIC/IBC of BIOC76 when in combination with Gallium citrate (compared to when BIOC76 is used alone).
ΔMIC/MBC is the fold-decrease in BIOC76 concentration as a result of the combination.
We concluded BIOC76 and gallium citrate maintain synergistic activity so long as the gallium concentration is at least about 0.005 to about 0.02 mg/ml. In this experimental, we set up MIC/MBC assay and serially diluted BIOC76 in rows with fixed concentrations of gallium citrate. […] The results are shown in FIG. 6, and in the following tables: […]

P. aeruginosa (PAK) [3] = experiment: Time-kill assay in CAMHB at 37° C.; assay type: cell-based, Pseudomonas aeruginosa; conditions: 4 mg/ml BIOC76 alone, broth
Description: In this study, we established the viability of P. aeruginosa in a broth at 37° C. when exposed to BIOC76 alone compared to BIOC76+gallium citrate. […] To conduct this experiment, we suspended P. aeruginosa (PAK) in CAMHB to a final concentration of 10^6 CFU/ml. Bacteria were exposed to BIOC76, GaCi, or BIOC76+GaCi and incubated at 37° C.

[4] = strain N0049 (PAK), with 0.0156 mg/ml GaCi
[5] = strain N0049 (PAK), with 0.0325 mg/ml GaCi
[6] = strain N0049 (PAK), with 0.065 mg/ml GaCi
[7] = strain N0049 (PAK), with 0.125 mg/ml GaCi
[8] = strain N0049 (PAK), with 0.25 mg/ml GaCi
[9] = strain N0049 (PAK), with 0.5 mg/ml GaCi
[10] = strain N0049 (PAK), with 1 mg/ml GaCi
[11] = strain N0049 (PAK), with 2 mg/ml GaCi

## O=NN(O)N(CCO)CC1OC2OC3C(CN(CCO)N(O)N=O)OC(OC4C(CN(CCO)N(O)N=O)OC(OC5C(CN(CCO)N(O)N=O)OC(OC6C(CN(CCO)N(O)N=O)OC(OC7C(CN(CCO)N(O)N=O)OC(OC8C(CN(CCO)N(O)N=O)OC(OC1C(O)C2O)C(O)C8O)C(O)C7O)C(O)C6O)C(O)C5O)C(O)C4O)C(O)C3O (stereo not shown) [BIOC76]
[1]
  NO content: ~4.7 μmol NO/mg dry powder
P. aeruginosa strains; 21 P. aeruginosa strains
  mode of activity alone (conclusion): largely bacteriostatic
P. aeruginosa strains; strain N0047 (AR-BANK #103)
  MBC Rep 1: 8000 µg/mL
  MIC Rep 1: 2000 µg/mL
P. aeruginosa strains; strain N0048 (ATCC 19143)
  MBC Rep 1: 2000 µg/mL
  MIC Rep 1: 500 µg/mL
P. aeruginosa strains; strain N0049 (PAK)
  MBC Rep 1: 4000 µg/mL
  MIC Rep 1: 2000 µg/mL
P. aeruginosa strains; strain N0050 (AR-BANK #0095)
  MBC Rep 1: 8000 µg/mL
  MIC Rep 1: 2000 µg/mL
P. aeruginosa strains; strain N0051 (AU32077)
  MBC Rep 1: 4000 µg/mL
  MIC Rep 1: 1000 µg/mL
P. aeruginosa strains; strain N0052 (AU25834)
  MBC Rep 1: 2000 µg/mL
  MIC Rep 1: 1000 µg/mL
P. aeruginosa strains; strain N0053 (AU30524)
  MBC Rep 1: 16000 µg/mL
  MIC Rep 1: 4000 µg/mL
P. aeruginosa strains; strain N0054 (AU26773)
  MBC Rep 1: 16000 µg/mL
  MIC Rep 1: 2000 µg/mL
P. aeruginosa strains; strain N0055 (AU22725)
  MBC Rep 1: >8000 µg/mL
  MIC Rep 1: 1000 µg/mL
P. aeruginosa strains; strain N0056 (AU22505)
  MBC Rep 1: 16000 µg/mL
  MIC Rep 1: 8000 µg/mL
P. aeruginosa strains; strain N0057 (AU35400)
  MBC Rep 1: 32000 µg/mL
  MIC Rep 1: 8000 µg/mL
P. aeruginosa strains; strain N0058 (AU32543)
  MBC Rep 1: 8000 µg/mL
  MIC Rep 1: 2000 µg/mL
P. aeruginosa strains; strain N0059 (AR-BANK #0054)
  MBC Rep 1: >16000 µg/mL
  MIC Rep 1: 2000 µg/mL
P. aeruginosa strains; strain N0069 (AR-BANK #0090)
  MBC Rep 1: >16000 µg/mL
  MIC Rep 1: 2000 µg/mL
P. aeruginosa strains; strain N0070 (AR-BANK #0092)
  MBC Rep 1: >16000 µg/mL
  MIC Rep 1: 2000 µg/mL
P. aeruginosa strains; strain N0071 (AR-BANK #0100)
  MBC Rep 1: >16000 µg/mL
  MIC Rep 1: 2000 µg/mL
P. aeruginosa strains; strain N0072 (AR-BANK #0105)
  MBC Rep 1: >16000 µg/mL
  MIC Rep 1: 2000 µg/mL
P. aeruginosa strains; strain N0079 (AR-BANK #0108)
  MBC Rep 1: >16000 µg/mL
  MIC Rep 1: 2000 µg/mL
P. aeruginosa strains; strain N0080 (AR-BANK #0110)
  MBC Rep 1: >16000 µg/mL
  MIC Rep 1: 2000 µg/mL
P. aeruginosa strains; strain N0081 (AR-BANK #0111)
  MBC Rep 1: >16000 µg/mL
  MIC Rep 1: 2000 µg/mL
P. aeruginosa strains; strain N0099 (ATCC 29260)
  MBC Rep 1: 8000 µg/mL
  MIC Rep 1: 2000 µg/mL
P. aeruginosa biofilms; PAK (N0049), 3-log reduction in biofilm
  MBEC of BIOC76: 4 mg/mL
P. aeruginosa biofilms; biofilms grown under aerobic conditions
  effectiveness against P. aeruginosa biofilms: effective
P. aeruginosa (PAK) [2]; PAK, alone
  MIC BIOC76: 2000 µg/mL
P. aeruginosa (PAK) [2]; PAK, with 0.0039 mg/ml GaCi
  Combo MIC BIOC76: 2000 µg/mL
P. aeruginosa (PAK) [2]; PAK, with 0.0078 mg/ml GaCi
  Combo MIC BIOC76: 1000 µg/mL
P. aeruginosa (PAK) [2]; PAK, with 0.0156 mg/ml GaCi
  Combo MIC BIOC76: 250 to 500 µg/mL
P. aeruginosa (PAK) [2]; PAK, with 0.0313 mg/ml GaCi
  Combo MIC BIOC76: 125 µg/mL
P. aeruginosa (PAK) [2]; strain N0049 (PAK)
  MBC BIOC76 alone: 4000 µg/mL
  MIC BIOC76 alone: 2000 µg/mL
P. aeruginosa (PAK) [2]; [4]
  Combo MBC BIOC76: 4 mg/mL
  Δ MBC: 0 fold-decrease
  Δ MIC: 4 fold-decrease
P. aeruginosa (PAK) [2]; [5]
  Combo MBC BIOC76: 4 mg/mL
  Combo MIC BIOC76: 125000 µg/mL
  Δ MBC: 0 fold-decrease
  Δ MIC: 16 fold-decrease
P. aeruginosa (PAK) [2]; [6]
  Combo MBC BIOC76: 4 mg/mL
  Combo MIC BIOC76: <60 µg/mL
  Δ MBC: 0 fold-decrease
P. aeruginosa (PAK) [2]; [7]
  Combo MBC BIOC76: 4 mg/mL
  Combo MIC BIOC76: <60 µg/mL
  Δ MBC: 0 fold-decrease
P. aeruginosa (PAK) [2]; [8]
  Combo MBC BIOC76: 2 mg/mL
  Combo MIC BIOC76: <60 µg/mL
  Δ MBC: 2 fold-decrease
P. aeruginosa (PAK) [2]; [9]
  Combo MBC BIOC76: 2 mg/mL
  Combo MIC BIOC76: <60 µg/mL
  Δ MBC: 2 fold-decrease
P. aeruginosa (PAK) [2]; [10]
  Combo MBC BIOC76: 4* mg/ml
  Combo MIC BIOC76: <60 µg/mL
  Δ MBC: 0* fold-decrease
P. aeruginosa (PAK) [2]; [11]
  Combo MBC BIOC76: 2 mg/mL
  Combo MIC BIOC76: <60 µg/mL
  Δ MBC: 2 fold-decrease
P. aeruginosa (PAK) [3]
  bacterial survival over 24 h: can recover after 24 h
